Source: PMC2562352 (Journal of medicinal chemistry, 2008)

Each compound was assayed on yellow fever virus (assay: not given). Conditions: not given.
Assay type: cell-based, yellow fever virus (YFV 17D)
`C/C(=N\NC(N)=O)c1ccc(NC(=O)Nc2nc(C)c(C(=O)NCc3ccc(Cl)cc3Cl)s2)cc1` [Compound 1, (E)-2-(3-(4-(1-(2-Carbamoylhydrazono)-ethyl)-phenyl)-ureido)-N-(2,4-dichlorobenzyl)-4-methylthiazole-5-carboxamide] was tested, and the “antiviral activity vs. yellow fever virus (in words)” value was “inactive”. In the case of `C/C(=N\NC(=N)N)c1ccc(NC(=O)Nc2nc(C)c(C(=O)NCc3ccc(Cl)cc3Cl)s2)cc1` [Compound 2, (E)-2-(3-(4-(1-(2-Carbamimidoylhydrazono)-ethyl)-phenyl)-ureido)-N-(2,4-dichlorobenzyl)-4-methylthiazole-5-carboxamide], the “antiviral activity vs. yellow fever virus (in words)” value is reported as “active”. For `CC(=O)c1ccc(NC(=O)Nc2nc(C)c(C(=O)O)s2)cc1` [Compound 4, 2-[3-(4-Acetylphenyl)-ureido]-4-methylthiazole-5-carboxylic Acid], the “antiviral activity vs. yellow fever virus (in words)” value was “lost its activity”. `CC(=O)c1ccc(NC(=O)Nc2nc(C)c(C(=O)NCc3ccc(Cl)cc3Cl)s2)cc1` [Compound 7, 2-(3-(4-Acetylphenyl)-ureido)-N-(2,4-dichlorobenzyl)-4-methylthiazole-5-carboxamide] was tested, and the “antiviral activity vs. yellow fever virus (in words)” value was “inactive”. For `CC(=O)c1ccc(NC(=O)Nc2nc(C)c(C(=O)NCc3ccc(Cl)c(Cl)c3)s2)cc1` [Compound 8, 2-(3-(4-Acetylphenyl)-ureido)-N-(3,4-dichlorobenzyl)-4-methylthiazole-5-carboxamide], the “antiviral activity vs. yellow fever virus (in words)” value was “active”. In the case of `Cc1nc(-n2nc(-c3ccccc3)cc2-c2ccccc2)sc1C(=O)NCc1ccc(Cl)c(Cl)c1` [Compound 11, N-(3,4-Dichlorobenzyl)-2-(3,5-diphenyl-1H-pyrazol-1-yl)-4-methylthiazole-5-carboxamide], the “antiviral activity relative to parent compound M02” value is reported as 10 times. In the case of `COC(=O)c1sc(N(Cc2ccc(C(C)=O)cc2)Cc2ccc(C(C)=O)cc2)nc1C` [Compound 18, Methyl 2-(Bis(4-acetylbenzyl)amino)-4-methylthiazole-5-carboxylate], the “antiviral activity vs. yellow fever virus (in words)” value is reported as “active”. `Nc1ccc(SCc2csc(-c3cccnc3)n2)cc1` [Compound 28] was tested, and the “antiviral activity vs. yellow fever virus (in words)” value was “lose antiviral activity”. For `Nc1ccccc1SCc1csc(-c2cccnc2)n1` [Compound 29], the “antiviral activity vs. yellow fever virus (in words)” value was “lose antiviral activity”. `Clc1ccc(-c2nc(CSc3cccc(Cl)c3)cs2)cc1` [Compound 30] was tested, and the “antiviral activity vs. yellow fever virus (in words)” value was “lose antiviral activity”. For `COC(=O)c1sc(-c2ccc(Cl)cc2)nc1C` [Compound 32, 2-(4-Chlorophenyl)-4-methyl-thiazole-5-carboxylic Acid Methyl Ester], the “antiviral activity vs. yellow fever virus (in words)” value was “inactive”.

These compounds were tested on BHK cells (assay: Cell viability assay). Conditions: CC50 compared with M02.
In the case of `Cc1nc(-n2nc(-c3ccccc3)cc2-c2ccccc2)sc1C(=O)NCc1ccc(Cl)c(Cl)c1` [Compound 11, N-(3,4-Dichlorobenzyl)-2-(3,5-diphenyl-1H-pyrazol-1-yl)-4-methylthiazole-5-carboxamide], the “cytotoxicity relative to parent compound M02 (times less)” value is reported as 2.7 times.
